Patent US11795510B2, “Identification of epigenomic reprogramming in cancer and uses thereof” (The Johns Hopkins University, priority 2016, dated 2023)

Legend:
A38Lg cells = assay: RNA-seq of control (DMSO) and 6AN treated cells, differentially expressed genes; type: cell-based, human
Procedure: RNAi experiments were performed with siRNA transfections (Oligofectamine, Life Technologies) using negative control siRNA (Sigma, SIC001) and pre-designed siRNA oligonucleotides against indicated genes in parallel (Sigma, PGD: SASI_Hs02 00334150, CDH2: SASI_Hs01_00153995, TOP2B: SASI_Hs02_00311874). siRNAs against mutant KRAS^G12V (CUACGCCAACAGCUCCAAC) (SEQ ID NO:1) were custom designed. Cells were incubated with siRNAs for 4 days after transfection and harvested. For drug treatments in 2-D, cells were grown to 70-80% confluency and treated for 3 days with 250 uM 6AN or DMSO negative control.
Tests for statistical significance (two-tailed students t-test) were performed on data collected from technical replicate (performed in parallel at the same time) or biological replicate (performed at different times) experiments as indicated in the figure legends using excel software for western blot densitometry, MTT assays, and tumor measurements. Whole genome bisulfite sequencing and RNA-seq were performed with HiSeq instruments (Illumina) as described in Hansen et al. (Increased methylation variation in epigenetic domains across cancer types. Nat Genet 43, 768-75 (2011)). ChIP assays were performed as previously described for fixed cells with sonication. For ChIP-qPCR, equal amounts of paired input/IP DNA were amplified by real-time PCR (Roche LightCycler96) and fold enrichments calculated. Primer sequences are listed in Supplementary Table 11. […] IP sequencing reads were normalized to their corresponding inputs. Sequencing procedures, bioinformatics methods including domain calls, and statistical analyses are described in detail within the supplementary methods section.
RNA-Seq data processing. 100 bp paired-end HiSeq2000 sequencing reads were aligned against human genome (hg19) by OSA (version 2.0.1) with default parameters. After alignment, only uniquely aligned reads were kept for further analysis. Gene annotation information was downloaded from ENSEMBL (ensembl.com, release 66). Reads count for each gene of all samples were estimated using HTSeq (huber.embl.de/users/anders/HTSeq/doc/overview.html) and then were used to identify differentially expressed (DE) genes using DESeq package. Genes with FDR<0.01 and fold-change>1.5 were considered DE genes.

[1] = tested on: CDH2 and TOP2B expression; assay: Real-time RT-PCR of CDH2 and TOP2B; type: cell-based, human
Procedure: Histones were acid extracted as described and western blots performed on 3.5 ug histones, which were checked by Ponceau stains prior to western blot to ensure equal loading. Densitometry was performed with ImageJ software. RNA was extracted with Trizol reagent (Life Technologies) and isopropanol precipitated. Genomic DNA was purified with MasterPure DNA extraction reagents (Epicenter). Immunohistochemistry, H&E staining, and immunofluorescence on formalin-fixed, paraffin-embedded (FFPE) tissue microarray sections (TMAs) were performed according to standard procedures.

[2] = genes down in A38Lg vs A38Per and down in 6AN vs DMSO treated A38Lg, RNA-seq DE genes
[3] = genes down in A38Lg vs A38Per and up in 6AN vs DMSO treated A38Lg, RNA-seq DE genes
[4] = genes recurrently down vs. A38Per and down in 6AN treated A38Lg cells, out of all 6AN down genes
[5] = genes recurrently down vs. A38Per and down in 6AN treated A38Lg cells, out of all recurrent down genes
[6] = genes recurrently down vs. A38Per and up in 6AN treated A38Lg cells, out of all 6AN up genes
[7] = genes recurrently down vs. A38Per and up in 6AN treated A38Lg cells, out of all recurrent down genes
[8] = genes recurrently up across all samples vs. A38Per and down in 6AN vs. DMSO treated A38Lg cells, out of all 6AN down genes
[9] = genes recurrently up vs. A38Per and down in 6AN treated A38Lg cells, out of all recurrent up genes
[10] = genes recurrently up vs. A38Per and up in 6AN treated A38Lg cells, out of all recurrent up genes
[11] = genes up in A38Lg vs A38Per and down in 6AN vs DMSO treated A38Lg, RNA-seq DE genes
[12] = genes up in A38Lg vs A38Per and up in 6AN vs DMSO treated A38Lg, RNA-seq DE genes

SMILES: NC(=O)c1ccc(N)nc1 [6AN, 6-aminonicotinamide]
- Coregulated/6AN down (38Lg down/6AN down): coregulated genes / all 6AN down genes (A38Lg cells; [2]): 277/1968
- Coregulated/38Lg down (38Lg down/6AN down): coregulated genes / all 38Lg down genes (A38Lg cells; [2]): 277/4402
- Coregulated/6AN down (38Lg down/6AN down), percent (A38Lg cells; genes down in A38Lg vs A38Per and down in 6AN vs DMSO treated A38Lg, share of 6AN down genes): (14%)
- Coregulated/38Lg down (38Lg down/6AN down), percent (A38Lg cells; genes down in A38Lg vs A38Per and down in 6AN vs DMSO treated A38Lg, share of 38Lg down genes): (0.06%)
- Coregulated/6AN up (38Lg down/6AN up): coregulated genes / all 6AN up genes (A38Lg cells; [3]): 915/2192
- Coregulated/38Lg down (38Lg down/6AN up): coregulated genes / all 38Lg down genes (A38Lg cells; [3]): 915/4402
- Coregulated/6AN up (38Lg down/6AN up), percent (A38Lg cells; genes down in A38Lg vs A38Per and up in 6AN vs DMSO treated A38Lg, share of 6AN up genes): (42%)
- Coregulated/38Lg down (38Lg down/6AN up), percent (A38Lg cells; genes down in A38Lg vs A38Per and up in 6AN vs DMSO treated A38Lg, share of 38Lg down genes): (21%)
- Recurrent Down/6AN Down: Coregulated/6AN down (gene count ratio) (A38Lg cells; [4]): 111/1968
- Recurrent Down/6AN Down: Coregulated/6AN down (percent) (A38Lg cells; [4]): (0.06%)
- Recurrent Down/6AN Down: Coregulated/Recurrent down (gene count ratio) (A38Lg cells; [5]): 111/1842
- Recurrent Down/6AN Down: Coregulated/Recurrent down (percent) (A38Lg cells; [5]): (0.06%)
- Recurrent Down/6AN Up: Coregulated/6AN up (gene count ratio) (A38Lg cells; [6]): 332/2192
- Recurrent Down/6AN Up: Coregulated/6AN up (percent) (A38Lg cells; [6]): (15%)
- Recurrent Down/6AN Up: Coregulated/Recurrent down (gene count ratio) (A38Lg cells; [7]): 332/1842
- Recurrent Down/6AN Up: Coregulated/Recurrent down (percent) (A38Lg cells; [7]): (18%)
- Recurrent Up/6AN Down: Coregulated/6AN down (gene count ratio) (A38Lg cells; [8]): 255/1968
- Recurrent Up/6AN Down: Coregulated/6AN down (percent) (A38Lg cells; [8]): (13%)
- Recurrent Up/6AN Down: Coregulated/Recurrent up (gene count ratio) (A38Lg cells; [9]): 255/891
- Recurrent Up/6AN Down: Coregulated/Recurrent up (percent) (A38Lg cells; [9]): (28.6%)
- Recurrent Up/6AN Up: Coregulated/6AN up (gene count ratio) (A38Lg cells; genes recurrently up vs. A38Per and up in 6AN treated A38Lg cells, out of all 6AN up genes): 82/2192
- Recurrent Up/6AN Up: Coregulated/Recurrent up (gene count ratio) (A38Lg cells; [10]): 82/891
- Recurrent Up/6AN Up: Coregulated/Recurrent up (percent) (A38Lg cells; [10]): (9%)
- Coregulated/6AN down (38Lg up/6AN down): coregulated genes / all 6AN down genes (A38Lg cells; [11]): 1032/1968
- Coregulated/38Lg up (38Lg up/6AN down): coregulated genes / all 38Lg up genes (A38Lg cells; [11]): 1032/4368
- Coregulated/6AN down (38Lg up/6AN down), percent (A38Lg cells; genes up in A38Lg vs A38Per and down in 6AN vs DMSO treated A38Lg, share of 6AN down genes): (52%)
- Coregulated/38Lg up (38Lg up/6AN down), percent (A38Lg cells; genes up in A38Lg vs A38Per and down in 6AN vs DMSO treated A38Lg, share of 38Lg up genes): (24%)
- Coregulated/6AN up (38Lg up/6AN up): coregulated genes / all 6AN up genes (A38Lg cells; [12]): 379/2192
- Coregulated/38Lg up (38Lg up/6AN up): coregulated genes / all 38Lg up genes (A38Lg cells; [12]): 379/4368
- Coregulated/6AN up (38Lg up/6AN up), percent (A38Lg cells; genes up in A38Lg vs A38Per and up in 6AN vs DMSO treated A38Lg, share of 6AN up genes): (17%)
- Coregulated/38Lg up (38Lg up/6AN up), percent (A38Lg cells; genes up in A38Lg vs A38Per and up in 6AN vs DMSO treated A38Lg, share of 38Lg up genes): (0.09%)
- CDH2 expression (RT-PCR) ([1]; distant metastatic subclone A38Lg): selectively repressed
- TOP2B expression (RT-PCR) ([1]; lung metastatic subclone): selectively repressed
